The values below come from US7446102B2, “Antibacterial amide macrocycles IV” (priority 2004, dated 2008).

The subject of one test is S. aureus 133. As to the kind of experiment: Determination of the minimum inhibitory concentration (MIC), S. aureus 133. The class given is cell-based. The method, then:
(§1) Determination of the Minimum Inhibitory Concentration (MIC)
(§2) The minimum inhibitory concentration (MIC) is the minimum concentration of an antibiotic with which the growth of a test microbe is inhibited over 18-24 h. The inhibitor concentration can in these cases be determined by standard microbiological methods (see, for example, The National Committee for Clinical Laboratory Standards. Methods for dilution antimicrobial susceptibility tests for bacteria that grow aerobically; approved standard-fifth edition. NCCLS document M7-A5 [ISBN 1-56238-394-9]. NCCLS, 940 West Valley Road, Suite 1400, Wayne, Pa. 19087-1898 USA, 2000). The MIC of the compounds of the invention is determined in the liquid dilution test on the 96-well microtitre plate scale. The bacterial microbes are cultivated in a minimal medium (18.5 mM Na2HPO4, 5.7 mM KH2PO4, 9.3 mM NH4Cl, 2.8 mM MgSO4, 17.1 mM NaCl, 0.033 μg/ml thiamine hydrochloride, 1.2 μg/ml nicotinic acid, 0.003 μg/ml biotin, 1% glucose, 25 μg/ml of each proteinogenic amino acid with the exception of phenylalanine; [H.-P. Kroll; unpublished]) with the addition of 0.4% BH broth (test medium). In the case of Enterococcus facium L4001, heat-inactivated fetal calf serum (FCS; GibcoBRL, Germany) is added to the test medium in a final concentration of 10%. Overnight cultures of the test microbes are diluted to an OD578 of 0.001 (to 0.01 in the case of enterococci) in fresh test medium, and incubated 1:1 with dilutions of the test substances (1:2 dilution steps) in test medium (200 μl final volume). The cultures are incubated at 37° C. for 18-24 hours; enterococci in the presence of 5% CO2.
(§3) The lowest substance concentration in each case at which no visible bacterial growth occurred any more is defined as the MIC.
(§4) Alternative Method for Determining the Minimum Inhibitory Concentration (MIC)
(§5) The minimum inhibitory concentration (MIC) is the minimum concentration of an antibiotic with which the growth of a test microbe is inhibited over 18-24 h. The inhibitor concentration can in these cases be determined by standard microbiological methods with modified medium in an agar dilution test (see, for example, The National Committee for Clinical Laboratory Standards. Methods for dilution antimicrobial susceptibility tests for bacteria that grow aerobically; approved standard-fifth edition. NCCLS document M7-A5 [ISBN 1-56238-394-9]. NCCLS, 940 West Valley Road, Suite 1400, Wayne, Pa. 19087-1898 USA, 2000). The bacterial microbes are cultivated on 1.5% agar plates which contain 20% defibrinated horse blood. The test microbes, which are incubated overnight on Columbia blood agar plates (Becton-Dickinson), are diluted in PBS, adjusted to a microbe count of about […] and placed dropwise (1-3 μl) on test plates. The test substances comprise different dilutions of the test substances (1:2 dilution steps). The cultures are incubated at 37° C. in the presence of 5% CO2 for 18-24 hours.
(§6) The lowest substance concentration in each case at which no visible bacterial growth occurred any more is defined as the MIC and is reported in μg/ml.

The next test has as its system S. aureus T17. Put plainly: Determination of the minimum inhibitory concentration (MIC), biphenomycin-resistant S. aureus T17. It counts as cell-based. As to conditions: Staphylococcus aureus, biphenomycin-resistant strain, no visible bacterial growth, 18-24 h, 37° C., read-out: MIC S. aureus T17. The procedure: as §1, §2, §3, §4, §5, §6
The S. aureus strain T17 is isolated in vivo. CFW1 mice are infected intraperitoneally with 4×10^7 S. aureus 133 cells per mouse. 0.5 h after the infection, the animals are treated intravenously with 50 mg/kg biphenomycin B. The kidneys are removed from the surviving animals on day 3 after the infection. After homogenization of the organs, the homogenates are plated out as described for RN4220Bi^R on antibiotics-free and antibiotics-containing agar plates and incubated at 37° C. overnight. […] About 20 of these colonies are tested for the biphenomycin B MIC, and a colony with an MIC of >50 μM is selected for further cultivation, and the strain is referred to as T17.

Test [1] deals with S. aureus 133 translation. Put plainly: S. aureus in vitro transcription-translation assay (firefly luciferase, S30 extract). The class given is biochemical. As to conditions: 50% inhibition of the translation of firefly luciferase. An excerpt:
In Vitro Transcription-Translation with S. aureus Extracts
Construction of an S. aureus Luciferase Reporter Plasmid
For the construction of a reporter plasmid which can be used in an in vitro transcription-translation assay from S. aureus the plasmid pBESTluc (Promega Corporation, USA) is used. The E. coli tac promoter present in this plasmid in front of the firefly luciferase is replaced by the capA1 promoter with appropriate Shine-Dalgarno sequence from S. aureus. The primers CAPFor 5′-[…] […] […]-3′ and CAPRev 5′-[…]-3′ are used for this. The primer CAPFor contains the capA1 promoter, the ribosome binding site and the 5′ region of the luciferase gene. After PCR using pBESTluc as template it is possible to isolate a PCR product which contains the firefly luciferase gene with the fused capA1 promoter. This is, after restriction with ClaI and HindIII, ligated into the vector pBESTluc which has likewise been digested with ClaI and HindIII. The resulting plasmid p1a is able to replicate in E. coli and be used as template in the S. aureus in vitro transcription-translation assay.
Preparation of S30 Extracts from S. aureus
Six liters of BHI medium are inoculated with a 250 ml overnight culture of an S. aureus strain and allowed to grow at 37° C. until the OD600 nm is 2-4. The cells are harvested by centrifugation and washed in 500 ml of cold buffer A (10 mM Tris acetate, pH 8.0, 14 mM magnesium acetate, 1 mM DTT, 1 M KCl). After renewed centrifugation, the cells are washed in 250 ml of cold buffer A with 50 mM KCl, and the resulting pellets are frozen at −20° C. for 60 min. The pellets are thawed on ice in 30 to 60 min and taken up in buffer B (10 mM Tris acetate, pH 8.0, 20 mM magnesium acetate, 1 mM DTT, 50 mM KCl) up to a total volume of 99 ml. 1.5 ml portions of lysostaphin (0.8 mg/ml) in buffer B are introduced into 3 precooled centrifuge cups and each is mixed with 33 ml of the cell suspension. The samples are incubated at 37° C., shaking occasionally, for 45 to 60 min, before 150 μl of a 0.5 M DTT solution are added. The lysed cells are centrifuged at 30 000×g and 4° C. for 30 min. The cell pellet is taken up in buffer B and then centrifuged again under the same conditions, and the collected supernatants are combined. The supernatants are centrifuged again under the same conditions, and 0.25 volumes of buffer C (670 mM Tris acetate, pH 8.0, 20 mM magnesium acetate, 7 mM Na3 phosphoenolpyruvate, 7 mM DTT, 5.5 mM ATP, 70 μM amino acids (complete from Promega), 75 μg of pyruvate kinase (Sigma, Germany))/ml are added to the upper ⅔ of the supernatant. The samples are incubated at 37° C. for 30 min. The supernatants are dialysed against 21 of dialysis buffer (10 mM Tris acetate, pH 8.0, 14 mM magnesium acetate, 1 mM DTT, 60 mM potassium acetate) in a dialysis tube with a 3500 Da cut-off with one buffer change at 4° C. overnight. The dialysate is concentrated to a protein concentration of about 10 mg/ml by covering the dialysis tube with cold PEG 8000 powder (Sigma, Germany) at 4° C. The S30 extracts can be stored in aliquots at −70° C.
Determination of the IC50 in the S. aureus In Vitro Transcription-Translation Assay
Inhibition of protein biosynthesis of the compounds can be shown in an in vitro transcription-translation assay. The assay is based on the cell-free transcription and translation of firefly luciferase using the reporter plasmid p1a as template and cell-free S30 extracts obtained from S. aureus. The activity of the resulting luciferase can be detected by luminescence measurement.
The amount of S30 extract or plasmid p1a respectively to be employed must be tested anew for each preparation in order to ensure an optimal concentration in the assay. 3 μl of the substance to be tested, dissolved in 5% DMSO, are introduced into an MTP. Then 10 μl of a suitably concentrated plasmid solution p1a are added. […]

Another test relates to E. faecium L4001. As to the kind of experiment: Determination of the minimum inhibitory concentration (MIC), E. faecium L4001. The class given is cell-based. As to conditions: Enterococcus faecium. The method, then:
as §1, §2, §3, §4, §5, §6

Setting [2] is: Staphylococcus aureus, 133, no visible bacterial growth, 18-24 h, 37° C., read-out: MIC S. aureus 133.
Where [3] appears, read: L4001, no visible bacterial growth, 18-24 h, 37° C., 5% CO2, read-out: MIC E. faecium L4001.
Where [4] appears, read: Staphylococcus aureus, 133, read-out: MIC S. aureus 133.
Where [5] appears, read: L4001, read-out: MIC E. faecium L4001.

Each structure is given as a SMILES string. pIC50: −log10 of the molar value. Values after ≈ are worked out from the molar mass of the structure shown. Structures can show the parent of a compound that is named as a salt. Where two headings read alike, the source gives them in different places. A value given as a limit tells only on which side of the number the result lay.

As to `NCCC[C@H](NC(=O)[C@@H]1Cc2cc(ccc2O)-c2ccc(O)c(c2)C[C@H](N)C(=O)N[C@@H](CCCN)C(=O)N1)C(=O)NCCC[C@H](N)CC(=O)NCCN` [Example 10, (8S,11S,14S)-14-Amino-N-{(1S)-4-amino-1-[({(4R)-4-amino-6-[(2-aminoethyl)amino]-6-oxohexyl}amino)carbonyl]butyl}-1-(3-aminopropyl)-5,17-dihydroxy-10,13-dioxo-9,12-diazatricyclo[14.3.1.1^2,6]henicosa-1(20),2(21),3,5,16,18-hexaene-8-carboxamide pentahydrochloride], the MIC in the test on S. aureus 133 (setting [2]) was 0.5 µg/mL; in the test with S. aureus T17, 0.5 µg/mL; in the test with E. faecium L4001 (setting [3]), 8 µg/mL. This compound gave a negative logarithm of the IC50 (pIC50) in test [1] of 7.15.

`NCCC[C@@H]1NC(=O)[C@@H](N)Cc2cc(ccc2O)-c2ccc(O)c(c2)C[C@@H](C(=O)N[C@H](CO)CNC(=O)[C@@H](N)CCCN)NC1=O` [Example 23]: the figures for the minimal inhibitory concentration (MIC) in the test with S. aureus 133 (setting [2]), in the test with S. aureus T17 and with E. faecium L4001 (setting [3]) were 0.5 µg/mL (≈ 0.778 µM), 1 µg/mL (≈ 1.56 µM) and 4 µg/mL (≈ 6.22 µM), respectively. In test [1], this compound gave a pIC50 of 6.49.

As for `NCCC[C@H](NC(=O)[C@@H]1Cc2cc(ccc2O)-c2ccc(O)c(c2)C[C@H](N)C(=O)N[C@@H](CCCN)C(=O)N1)C(=O)N[C@@H](CCN)C(=O)NCCN` [Example 13, (8S,11S,14S)-14-Amino-N-((1S)-4-amino-1-{[((1S)-3-amino-1-{[(2-aminoethyl)amino]carbonyl}propyl)amino]carbonyl}butyl)-11-(3-aminopropyl)-5,17-dihydroxy-10,13-dioxo-9,12-diazatricyclo[14.3.1.1^2,6]henicosa-1(20),2(21),3,5,16,18-hexaene-8-carboxamide pentahydrochloride], the minimal inhibitory concentration (MIC) in the test on S. aureus 133 (setting [4]) was found to be 0.5 µg/mL; in the test with S. aureus T17, 0.5 µg/mL; in the test on E. faecium L4001 (setting [5]), 16 µg/mL. The pIC50 in test [1] was 7.22.

Consider `N=C(N)NCCC[C@H](NC(=O)[C@@H]1Cc2cc(ccc2O)-c2ccc(O)c(c2)C[C@H](N)C(=O)N[C@@H](CCCN)C(=O)N1)C(=O)NCCN` [Example 14, (8S,11S,14S)-14-Amino-N-((1S)-1-{[(2-aminoethyl)amino]carbonyl}-4-{[amino(imino)methyl]amino}butyl)-11-(3-aminopropyl)-5,17-dihydroxy-10,13-dioxo-9,12-diazatricyclo[14.3.1.1^2,6]henicosa-1(20),2(21),3,5,16,18-hexaene-8-carboxamide pentahydrochloride], for which the values for the MIC in the test on S. aureus 133 (setting [4]), in the test with S. aureus T17 and in the test on E. faecium L4001 (setting [5]) were 1 µg/mL, 2 µg/mL and 4 µg/mL, respectively. For the same compound, the pIC50 in test [1] was 7.15.

`NCCC[C@H](N)CNC(=O)[C@H](CCCN)NC(=O)[C@@H]1Cc2cc(ccc2O)-c2ccc(O)c(c2)C[C@H](N)C(=O)N[C@@H](CCCN)C(=O)N1` [Example 16, (8S,11S,14S)-14-Amino-N-[(1S)-4-amino-1-({[(2S)-2,5-diaminopentyl]amino}carbonyl)butyl]-11-(3-aminopropyl)-5,17-dihydroxy-10,13-dioxo-9,12-diazatricyclo[14.3.1.1^2,6]henicosa-1(20),2(21),3,5,16,18-hexaene-8-carboxamide tetrahydrochloride]: the MIC was 2 µg/mL with S. aureus 133 (setting [4]), 2 µg/mL with S. aureus T17 and greater than 32 µg/mL with E. faecium L4001 (setting [5]). Also, in test [1], the negative-log IC50 (pIC50) is 7.00.

For the compound `NCCC[C@@H]1NC(=O)[C@@H](N)Cc2cc(ccc2O)-c2ccc(O)c(c2)C[C@@H](C(=O)N[C@@H](C[C@@H](O)CN)C(=O)NCCN)NC1=O` [Example 6, (8S,11S,14S)-14-Amino-N-((1S,3R)-4-amino-1-{[(2-aminoethyl)amino]carbonyl}-3-hydroxybutyl)-11-[3-aminopropyl]-5,17-dihydroxy-10,13-dioxo-9,12-diazatricyclo[14.3.1.1^2,6]henicosa-1(20),2(21),3,5,16,18-hexaene-8-carboxamide tetrahydrochloride], the results for the minimal inhibitory concentration (MIC) with S. aureus 133 (setting [4]), in the test on S. aureus T17 and in the test on E. faecium L4001 (setting [5]) were 1 µg/mL, 2 µg/mL and 8 µg/mL, respectively. Further, in test [1], the negative-log IC50 (pIC50) is 7.00.
